# According to US9624166B2, “Tetracycline compounds” (Tetraphase Pharmaceuticals, Inc., priority 2009, dated 2017):
# Columns and labels:
# [1] = test system: S. aureus ATCC 13709 (Smith); test: Murine systemic infection (septicemia) model with intraperitoneal challenge of S. aureus; assay type: in vivo; conditions: CD-1 female mice, i.v. one hour post-challenge, SA Smith septicemia, survival after 48 hours, Probit analysis
# Procedure: Murine Systemic Infection Model with Intraperitoneal Challenge of S. aureus
# In the model, CD-1 female mice (18-20 grams) were injected intraperitoneally with S. aureus ATCC 13709 (Smith) (1-2×10^6/mouse) mixed with 5% hog gastric mucin, a bacterial inoculum previously established through virulence studies required to achieve 90-100% lethality within 24-48 hours. Typically, six mice were treated intravenously per dose group one hour post-challenge with either compound 101, compound 105, compound 145, compound 153, compound 166, and compound 218, tetracycline or tigecycline at doses ranging from 0.05-10 mg/kg. After 48 hours, percent survival was calculated and the dose (mg/kg) effecting 50% survival, the protective dose 50% (PD50), was reported along as calculated by Probit analysis.
# The PD50 values of compound 101, compound 105, compound 145, compound 153, compound 166, and compound 218 and comparators tigecycline and tetracycline in the S. aureus ATCC 13709 mouse septicemia model are described in Table 6.
# [2] = test system: E. coli ATCC 25922 (EC107, wt, control); test: MIC assay, EC107; assay type: cell-based; conditions: numeric MIC of control compounds
# Procedure: (§1) Minimum Inhibitory Concentration (MIC) Assay
# (§2) MICs were determined according to the Clinical and Laboratory Standards Institute (CLSI) guidances (e.g., CLSI. Performance standards for antimicrobial susceptibility testing; nineteenth information supplement. CLSI document M100-S19, CLSI, 940 West Valley Road, Suite 1400, Wayne, Pa. 19087-1898, USA, 2009). Briefly, frozen bacterial strains were thawed and subcultured onto Mueller Hinton Broth (MHB) or other appropriate media (Streptococcus requires blood and Haemophilus requires hemin and NAD). Following incubation overnight, the strains were subcultured onto Mueller Hinton Agar and again incubated overnight. […] Isolated colonies were selected to prepare a starting inoculum equivalent to a 0.5 McFarland standard. The starting inoculum was diluted 1:125 using MHB for further use. Test compounds were prepared by dilution in sterile water to a final concentration of 5.128 mg/mL. Antibiotics (stored frozen, thawed and used within 3 hours of thawing) and compounds were further diluted to the desired working concentrations.
# (§3) The assays were run as follows. Fifty μL of MHB was added to wells 2-12 of a 96-well plate. One hundred μL of appropriately diluted antibiotics was added to well 1. Fifty μL of antibiotics was removed from well 1 and added to well 2 and the contents of well 2 mixed by pipetting up and down five times. Fifty μL of the mixture in well 2 was removed and added to well 3 and mixed as above. Serial dilutions were continued in the same manner through well 12. Fifty μL was removed from well 12 so that all contained 50 μL. Fifty μL of the working inoculum was then added to all test wells. A growth control well was prepared by adding 50 μL of working inoculum and 50 μL of MHB to an empty well. The plates were then incubated at 37° C. overnight, removed from the incubator and each well was read on a plate reading mirror. The lowest concentration (MIC) of test compound that inhibited the growth of the bacteria was recorded.
# (§4) Fifteen bacterial strains, listed below, were examined in minimum inhibitory concentration (MIC) assays.
# [3] = test system: E. cloacae ATCC 13047 (EC108, wt); test: MIC assay, EC108; assay type: cell-based; conditions: numeric MIC of control compounds
# Procedure: as §1, §2, §3, §4
# [4] = test system: P. aeruginosa ATCC 27853 (PA111, wt, control); test: MIC assay, PA111; assay type: cell-based; conditions: numeric MIC of control compounds
# Procedure: as §1, §2, §3, §4
# [5] = test system: A. baumanii ATCC 19606 (AB110, wt); test: MIC assay, AB110; assay type: cell-based; conditions: numeric MIC of control compounds
# Procedure: as §1, §2, §3, §4
# [6] = test system: K. pneumoniae ATCC 13883 (KP109, wt); test: MIC assay, KP109; assay type: cell-based; conditions: numeric MIC of control compounds
# Procedure: as §1, §2, §3, §4
compound,measurement,setting,value
COc1cc(NC(=O)CN2CCCC2)c(O)c2c1C[C@H]1C[C@H]3[C@H](N(C)C)C(O)=C(C(N)=O)C(=O)[C@@]3(O)C(O)=C1C2=O [Compound 101],"PD50 (protective dose 50%, dose effecting 50% survival)",[1],0.36 mg/kg
COc1cc(NC(=O)CN(C)C)c(O)c2c1C[C@H]1C[C@H]3[C@H](N(C)C)C(O)=C(C(N)=O)C(=O)[C@@]3(O)C(O)=C1C2=O [Compound 105],"PD50 (protective dose 50%, dose effecting 50% survival)",[1],0.25 mg/kg
COc1cc(NS(=O)(=O)c2ccccc2)c(O)c2c1C[C@H]1C[C@H]3[C@H](N(C)C)C(O)=C(C(N)=O)C(=O)[C@@]3(O)C(O)=C1C2=O [Compound 153],"PD50 (protective dose 50%, dose effecting 50% survival)",[1],>10 mg/kg
COc1cc(NS(=O)(=O)CC(C)C)c(O)c2c1C[C@H]1C[C@H]3[C@H](N(C)C)C(O)=C(C(N)=O)C(=O)[C@@]3(O)C(O)=C1C2=O [Compound 166],"PD50 (protective dose 50%, dose effecting 50% survival)",[1],4.3 mg/kg
CCN(C)CC(=O)Nc1cc(OC(F)(F)F)c2c(c1O)C(=O)C1=C(O)[C@]3(O)C(=O)C(C(N)=O)=C(O)[C@@H](N(C)C)[C@@H]3C[C@@H]1C2 [Compound 218],"PD50 (protective dose 50%, dose effecting 50% survival)",[1],1.4 mg/kg
CN(C)c1ccc(O)c2c1C[C@H]1C[C@H]3[C@H](N(C)C)C(O)=C(C(N)=O)C(=O)[C@@]3(O)C(O)=C1C2=O [Minocycline],MIC EC107,[2],0.5 µg/mL
same,MIC EC108,[3],2 µg/mL
same,MIC PA111,[4],16 µg/mL
same,MIC AB110,[5],0.06 µg/mL
same,MIC KP109,[6],1 µg/mL
CN(C)[C@@H]1C(O)=C(C(N)=O)C(=O)[C@@]2(O)C(O)=C3C(=O)c4c(O)cccc4C[C@H]3C[C@@H]12 [Sancycline],MIC EC107,[2],8 µg/mL
same,MIC EC108,[3],8 µg/mL
same,MIC PA111,[4],> 32 µg/mL
same,MIC AB110,[5],0.25 µg/mL
same,MIC KP109,[6],8 µg/mL
"CN(C)[C@@H]1C(O)=C(C(N)=O)C(=O)[C@@]2(O)C(O)=C3C(=O)c4c(O)cccc4[C@@](C)(O)[C@H]3C[C@@H]12 [Tetracycline, tetracycline]","PD50 (protective dose 50%, dose effecting 50% survival)",[1],1.0 mg/kg
"CN(C)c1cc(NC(=O)CNC(C)(C)C)c(O)c2c1C[C@H]1C[C@H]3[C@H](N(C)C)C(O)=C(C(N)=O)C(=O)[C@@]3(O)C(O)=C1C2=O [Tigecycline, tigecycline]",MIC EC107,[2],0.03 µg/mL
same,MIC EC108,[3],0.25 µg/mL
same,MIC PA111,[4],8 µg/mL
same,MIC AB110,[5],0.25 µg/mL
same,"PD50 (protective dose 50%, dose effecting 50% survival)",[1],0.97 mg/kg
same,MIC KP109,[6],0.125 µg/mL
